This passage reports GI50 and TGI results from PubChem BioAssay (NCI).

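Compound exposure: 48 hours, 5 concentrations, 96-well plates. GI50 is the concentration that inhibits growth by half. TGI denotes the concentration required for complete inhibition of growth.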

The first assay relates to DU-145 prostate. The assay is described as follows: inhibition of tumour cell growth, NCI panel, 48 h.
`CC1=C(C(=O)Nc2ccc3[nH]ncc3c2)C(c2ccc3ccccc3c2)CC(=O)N1` (centres undefined): the GI50 is above 25 µM and the TGI is above 25 µM.
`O=C1/C(=C/c2ccc(Br)cc2)C=C(c2ccccc2)N1CCc1ccccc1`: the GI50 is 2.54 µM and the TGI was 15.8 µM.
Take `CSc1ccc(C2=NN(C(C)=O)C(c3cc(C)cs3)C2)cc1` (centres undefined): the GI50 was 34.6 µM and the TGI was above 100 µM.
In the case of `CCCCC(=O)OCC1OC(n2cnc3c(=S)nc[nH]c32)C(OC(=O)CCCC)C1OC(=O)CCCC` (centres undefined), the GI50 was 0.636 µM and the TGI was above 100 µM.
On the same counts, the results for `O=c1oc2ccc(F)cc2c(=O)n1-c1ccc(F)cc1F` are 4.18 µM and above 100 µM.
Regarding `O=C(O)CCCCC(CCSCc1ccccc1)SCc1ccccc1` (centres undefined), the GI50 is above 71.2 µM and the TGI was above 100 µM.
On to `CC1=C(CCCNS(C)(=O)=O)C2=C(C)C3(CC3)[C@@](C)(O)C(=O)C2=C1`, for which the GI50 was 0.369 µM and the TGI was determined as 17.4 µM.
On to `O=C1CNCCCN2CCN(CCCNCC(=O)Nc3ccc(cc3)S(=O)(=O)c3ccc(cc3)NC(=O)CNCCCN3CCN(CCCNCC(=O)Nc4ccc(cc4)S(=O)(=O)c4ccc(cc4)N1)CC3)CC2`, for which the TGI was above 100 µM.
As for `N#Cc1ccc(C#Cc2ccccc2C#CCCCCO)cc1`, the GI50 was 16 µM and the TGI turned out to be 29.8 µM.
`O=NN(Cc1ccc(Cl)cc1)C(C(=O)O)c1ccccc1` (centres undefined): the TGI is above 100 µM.

The next assay relates to NCI-H23 lung. The assay is described as follows: inhibition of tumour cell growth, NCI panel, 48 h.
As to `CC1=C(C(=O)Nc2ccc3[nH]ncc3c2)C(c2ccc3ccccc3c2)CC(=O)N1` (centres undefined), the GI50 was 19 µM and the TGI is above 25 µM.
As to `O=C1/C(=C/c2ccc(Br)cc2)C=C(c2ccccc2)N1CCc1ccccc1`, the GI50 was 1.69 µM and the TGI turned out to be 14.6 µM.
Taken in the same sequence, the figures for `CSc1ccc(C2=NN(C(C)=O)C(c3cc(C)cs3)C2)cc1` (centres undefined) were 29.9 µM and above 100 µM.
Regarding `CCCCC(=O)OCC1OC(n2cnc3c(=S)nc[nH]c32)C(OC(=O)CCCC)C1OC(=O)CCCC` (centres undefined), the GI50 is 1.36 µM and the TGI is above 100 µM.
Turning to `O=c1oc2ccc(F)cc2c(=O)n1-c1ccc(F)cc1F`, the GI50 is 2.96 µM and the TGI was found to be 19.7 µM.
As for `O=C(O)CCCCC(CCSCc1ccccc1)SCc1ccccc1` (centres undefined), the GI50 is 33.5 µM and the TGI is above 100 µM.
Regarding `CC1=C(CCCNS(C)(=O)=O)C2=C(C)C3(CC3)[C@@](C)(O)C(=O)C2=C1`, the GI50 was 0.269 µM and the TGI stood at 1.83 µM.
Compound `O=C1CNCCCN2CCN(CCCNCC(=O)Nc3ccc(cc3)S(=O)(=O)c3ccc(cc3)NC(=O)CNCCCN3CCN(CCCNCC(=O)Nc4ccc(cc4)S(=O)(=O)c4ccc(cc4)N1)CC3)CC2` displayed a TGI above 76.9 µM.
Turning to `N#Cc1ccc(C#Cc2ccccc2C#CCCCCO)cc1`, the GI50 is 17.2 µM and the TGI is 33.8 µM.
In turn, `O=NN(Cc1ccc(Cl)cc1)C(C(=O)O)c1ccccc1` (centres undefined) showed a TGI above 100 µM.

A further assay deals with SK-MEL-5 melanoma. The assay is described as follows: inhibition of tumour cell growth, NCI panel, 48 h.
Turning to `CC1=C(C(=O)Nc2ccc3[nH]ncc3c2)C(c2ccc3ccccc3c2)CC(=O)N1` (centres undefined), the GI50 was above 19.3 µM and the TGI was above 25 µM.
On the same counts, the results for `O=C1/C(=C/c2ccc(Br)cc2)C=C(c2ccccc2)N1CCc1ccccc1` are 3.89 µM and 20.8 µM.
Taken in the same sequence, the figures for `CSc1ccc(C2=NN(C(C)=O)C(c3cc(C)cs3)C2)cc1` (centres undefined) were 15.1 µM and 29.5 µM.
With `CCCCC(=O)OCC1OC(n2cnc3c(=S)nc[nH]c32)C(OC(=O)CCCC)C1OC(=O)CCCC` (centres undefined), the GI50 is 1.76 µM and the TGI was above 46.5 µM.
Taken in the same sequence, the figures for `O=c1oc2ccc(F)cc2c(=O)n1-c1ccc(F)cc1F` were 1.76 µM and 3.69 µM.
Taken in the same sequence, the figures for `O=C(O)CCCCC(CCSCc1ccccc1)SCc1ccccc1` (centres undefined) were 53.5 µM and above 100 µM.
Regarding `CC1=C(CCCNS(C)(=O)=O)C2=C(C)C3(CC3)[C@@](C)(O)C(=O)C2=C1`, the GI50 is 0.492 µM and the TGI was 1.98 µM.
As to `O=C1CNCCCN2CCN(CCCNCC(=O)Nc3ccc(cc3)S(=O)(=O)c3ccc(cc3)NC(=O)CNCCCN3CCN(CCCNCC(=O)Nc4ccc(cc4)S(=O)(=O)c4ccc(cc4)N1)CC3)CC2`, the TGI is above 73 µM.
Consider `N#Cc1ccc(C#Cc2ccccc2C#CCCCCO)cc1`, for which the GI50 is 17.5 µM and the TGI was 31.9 µM.
Consider `O=NN(Cc1ccc(Cl)cc1)C(C(=O)O)c1ccccc1` (centres undefined), for which the TGI is above 100 µM.

The subject of another assay is HOP-92 NSCLC. The assay is described as follows: inhibition of tumour cell growth, NCI panel, 48 h.
As for `CC1=C(C(=O)Nc2ccc3[nH]ncc3c2)C(c2ccc3ccccc3c2)CC(=O)N1` (centres undefined), the GI50 is 0.0408 µM and the TGI stood at 10.9 µM.
Regarding `O=C1/C(=C/c2ccc(Br)cc2)C=C(c2ccccc2)N1CCc1ccccc1`, the GI50 is 0.32 µM and the TGI came to 2.63 µM.
`CSc1ccc(C2=NN(C(C)=O)C(c3cc(C)cs3)C2)cc1` (centres undefined): the GI50 is 21.6 µM and the TGI came to 90.1 µM.
On to `CCCCC(=O)OCC1OC(n2cnc3c(=S)nc[nH]c32)C(OC(=O)CCCC)C1OC(=O)CCCC` (centres undefined), for which the GI50 was 1 µM and the TGI is above 84.5 µM.
In the case of `O=c1oc2ccc(F)cc2c(=O)n1-c1ccc(F)cc1F`, the GI50 was 1.6 µM and the TGI worked out at 4.68 µM.
Consider `O=C(O)CCCCC(CCSCc1ccccc1)SCc1ccccc1` (centres undefined), for which the GI50 is 29.3 µM and the TGI is above 81.6 µM.
Consider `CC1=C(CCCNS(C)(=O)=O)C2=C(C)C3(CC3)[C@@](C)(O)C(=O)C2=C1`, for which the GI50 is 0.303 µM and the TGI came out at 1.41 µM.
For `O=C1CNCCCN2CCN(CCCNCC(=O)Nc3ccc(cc3)S(=O)(=O)c3ccc(cc3)NC(=O)CNCCCN3CCN(CCCNCC(=O)Nc4ccc(cc4)S(=O)(=O)c4ccc(cc4)N1)CC3)CC2`, the TGI was found to be 60.6 µM.
As to `N#Cc1ccc(C#Cc2ccccc2C#CCCCCO)cc1`, the GI50 was 17.7 µM and the TGI is 34.6 µM.
As for `O=NN(Cc1ccc(Cl)cc1)C(C(=O)O)c1ccccc1` (centres undefined), the TGI was above 100 µM.

The next assay deals with SK-OV-3 ovarian. The assay is described as follows: inhibition of tumour cell growth, NCI panel, 48 h.
Take `CC1=C(C(=O)Nc2ccc3[nH]ncc3c2)C(c2ccc3ccccc3c2)CC(=O)N1` (centres undefined): the GI50 is above 25 µM and the TGI was above 25 µM.
As to `O=C1/C(=C/c2ccc(Br)cc2)C=C(c2ccccc2)N1CCc1ccccc1`, the GI50 is 1.55 µM and the TGI is 5 µM.
`CSc1ccc(C2=NN(C(C)=O)C(c3cc(C)cs3)C2)cc1` (centres undefined): the GI50 is 38.2 µM and the TGI was above 100 µM.
Taken in the same sequence, the figures for `CCCCC(=O)OCC1OC(n2cnc3c(=S)nc[nH]c32)C(OC(=O)CCCC)C1OC(=O)CCCC` (centres undefined) were 0.636 µM and above 80.3 µM.
Taken in the same sequence, the figures for `O=c1oc2ccc(F)cc2c(=O)n1-c1ccc(F)cc1F` were 1.72 µM and 4.6 µM.
On the same counts, the results for `O=C(O)CCCCC(CCSCc1ccccc1)SCc1ccccc1` (centres undefined) are above 88.7 µM and above 100 µM.
For `CC1=C(CCCNS(C)(=O)=O)C2=C(C)C3(CC3)[C@@](C)(O)C(=O)C2=C1`, the GI50 is 0.304 µM and the TGI came out at 1.11 µM.
With `O=C1CNCCCN2CCN(CCCNCC(=O)Nc3ccc(cc3)S(=O)(=O)c3ccc(cc3)NC(=O)CNCCCN3CCN(CCCNCC(=O)Nc4ccc(cc4)S(=O)(=O)c4ccc(cc4)N1)CC3)CC2`, the TGI was above 100 µM.
In the case of `N#Cc1ccc(C#Cc2ccccc2C#CCCCCO)cc1`, the GI50 was 18.2 µM and the TGI was 33.5 µM.
